The text below walks through data of a melting point compilation (Tetko et al.; mined from patent text by program, amines drawn as free bases though some values may be those of a salt).

For `N#Cc1ccc(Cn2c3cc(O)c(O)cc3c3c(Br)cc(O)c(O)c32)cc1`, the melting point (commonly the temperature, or range, at which the solid turns liquid) is greater than 260 °C. The result for `CCOP(=O)(CC(=O)N1CCc2ccccc21)OCC` reads 97 to 99 °C; that for `O=C(O)Cn1cc(Cc2nc3c(F)c(F)cc(F)c3s2)c2ccc(Cl)cc21`, 194 to 195 °C; that for `CCCCNC(N)=Nc1nc(-c2cccc(CNC(C)=O)n2)cs1`, 145 to 146 °C. Molecule `O=C1CCC(n2cnc3cccc(Cl)c3c2=O)C(=O)N1` (stereo unspecified) displayed a melting point of 308 to 310 °C.

On to `O=c1cc(-c2ccsc2)c2ccc(O)cc2o1`, for which the melting point lay in the range of 234 to 236 °C.

In turn, `CCOC(=O)c1ccc2nc3n(c(=O)c2c1)CCC3=Cc1ccccc1C` returned a melting point of 184 to 185 °C.

In the case of `CCCc1ccc(S(=O)(=O)Nc2ccc3nc(C)ccc3c2)cc1`, the melting point was 174 °C. Consider `CCN(CCNC(=O)c1n[nH]cc1NC(=O)c1cccc(C)n1)c1cccc(C)c1`, for which the melting point is 203 to 205 °C. Next, `CCOC(=O)CS(=O)(=O)Cc1cccc(-c2c(CC(=O)Nc3ccc(F)cc3C(F)(F)F)c(=O)oc3cc(Cl)c(C)cc23)c1`: 230 to 231 °C; `COc1cc2c(c3c1C1CCC3CC1)OC(CN)C2` (stereo unspecified): greater than 210 °C. Next, `COc1ncnc(-c2cc([N+](=O)[O-])c(C#N)cc2F)c1C`: 129 to 131 °C; `COc1ccc2[nH]cc(-c3cc4c(C(N)=O)ccnc4[nH]3)c2c1`: greater than 320 °C; `COc1cc(C)cc(OC)c1C1=NC(NC(=O)c2cc3ccccc3[nH]2)C(=O)N(C)c2ccccc21` (single isomer, unassigned; (-)): 135 °C. The molecule `N#Cc1nn(-c2c(Cl)cc(C(F)(F)F)cc2Cl)cc1C1(Cl)CC1C(F)F` (stereo unspecified) displayed a melting point of 124 to 125 °C.

As to `CCCOc1ccc(OCC(O)CNCCNc2c(C)cccc2C)cc1` (stereo unspecified), the melting point fell in the range of 51 to 54 °C.

The molecule `CCCCCCCCCCCCCCCCOC(=O)c1ccc(-c2ncc[nH]2)nc1` registered a melting point of 97 to 98 °C. The result for `CC1C=CC=CN2C3=C(C(=O)CCC3)N(C(=O)Nc3ccccc3F)C12` (stereo unspecified) reads 139 to 141 °C. The result for `Clc1ccc(-c2ccc(Cl)nn2)cc1` reads 202 to 204 °C; that for `CCCCCCCCCCCCCCCCc1nc(N(C)C)nc(OC)c1O`, 78 to 79 °C; that for `O=C1c2ccccc2C(=O)N1CCCOc1cccc2[nH]c3ccccc3c12`, 171 to 172 °C. Next, `OC1CSC(Oc2ccnc(-c3cccnc3)c2)C(O)C1O` (stereo unspecified): 197 °C. `Cc1ccc(S(=O)(=O)Oc2ccc(S(=O)(=O)C3Cc4ccccc4C3Cl)cc2)cc1` (stereo unspecified) yielded a melting point of 176 °C. The result for `CC(=O)Nc1ccc2c(c1)CCCC2` reads 62 °C; that for `Cc1ccccc1C(=O)c1ccc(C(=O)O)o1`, 155 to 157 °C. The result for `CN(C)Cc1c(-c2ccc3sc(=O)n(C)c3c2)nc2ccccn12` reads 137 to 140 °C; that for `CNC(=O)c1c(Nc2ccccc2[N+](=O)[O-])c(C)nn1C`, 223 to 225 °C. The result for `CC1(C)CC(N2CCN(c3ccccc3)C2=O)c2cc(C#N)ccc2O1` (stereo unspecified) reads 166 to 168 °C; that for `COc1cc2c(cc1-c1cnccn1)-c1c(-c3cccs3)c3c(n1CC2)C(=O)N(C(C)(C)C)CCCOC3`, 267 to 268 °C; that for `O=[N+]([O-])c1ccc(Cl)c(C=Cc2nc3ccccc3s2)c1`, 188 to 189 °C. As to `Cc1oc(-c2ccccc2)nc1CCOc1ccc(C[C@H](NC(=O)C=Cc2ccc(F)c(F)c2)C(=O)O)cc1`, the melting point was 204 to 206 °C. `O=C(O)C1=Cc2c(ccc(Cl)c2-c2ccsc2)OC1C(F)(F)F` (stereo unspecified) came in with a melting point of 211 to 214 °C. The result for `CC(=O)OCC1OC(F)C(OC(C)=O)C(OC(C)=O)C1OC(C)=O` (stereo unspecified) reads 68 to 69 °C; that for `COC(=O)C1CCC2C3CCC4CC(O)C(Br)CC4(C)C3C(=O)CC12C` (stereo unspecified), 205 to 208 °C. Next, `N=C(N)NCCCOc1cccc2c1NC(=O)C(CC(=O)O)C2` (stereo unspecified): 151 to 155 °C; `CCS(=O)(=O)c1cccnc1S(=O)(=O)NC(C)(C)C`: 58 to 63 °C; `O=C1C(c2ccccc2)c2ccccc2SN1c1ccccc1O` (stereo unspecified): 165 to 168 °C. Next, `COc1ccc(NC(=O)c2ccc(-c3ccc(-c4nc(N)no4)cc3C)cc2)cc1N1CCN(C)CC1`: 169 to 171 °C; `CCOC(=O)COc1ccc2c(c1)C(=O)CCC2`: 84 to 86 °C; `CCOC(=O)c1nnc(C(=O)OCC)c2c1[nH]c1ccccc12`: 151 to 152 °C. Take `CCOC(=O)c1csc(-c2ccc3cc4c(cc3c2)C(C)(C)CCC4(C)C)c1`: the melting point is 107 to 108 °C.

`Cc1cc(CN2C(=O)C(C3=NS(=O)(=O)c4c(CN(C)S(C)(=O)=O)cccc43)=C(O)C2C(C)(C)C)ccc1F` (stereo unspecified) returned a melting point of 105 to 109 °C. Next, `O=c1[nH]c(=O)n([C@@H]2CO[C@@H](CO)O2)cc1/C=C/Br`: 75 to 78 °C; `CCC(CC)NC(=O)c1cc(-c2cnc3[nH]cc(C(=O)C4(C)CCCCC4)c3n2)cs1`: 273 to 275 °C.

With `O=C(O)Cn1c(=O)c(=O)[nH]c2c([N+](=O)[O-])c(Br)c(Br)cc21`, the melting point was 260 to 264 °C.

On to `COc1ccc(NC(=O)c2c(C)nc3ccccc3c2O)cc1`, for which the melting point turned out to be 222 °C. The result for `COCCCc1cccc(C2(c3ccc(OC(F)F)cc3)N=C(N)N(C)C2=O)c1` (stereo unspecified) reads 48 to 50 °C; that for `COCCCNc1ncnc2c1sc1nc(N3CCOCC3)c3c(c12)CC(C)(C)OC3`, 178 to 179 °C. The result for `CCOc1nsnc1O` reads 104 to 106 °C. `CN(C)/C=C1/C(=O)N(C(=O)OC(C)(C)C)C2C3=C(CCCC3(C)C)CC12` (stereo unspecified) returned a melting point of 170 to 172 °C.

`CC1=C(C)c2cc(Br)ccc2Oc2ccccc21`: the melting point was 112 to 114 °C.

`Cc1nc(-c2ccccc2)cc(-c2cccc([N+](=O)[O-])c2)c1CO`: the melting point lay within 209 to 214 °C. The result for `N#Cc1cc([N+](=O)[O-])ccc1Oc1ccccc1` reads 126 °C; that for `CCCOc1ccc(N)cc1C1=NC(=O)C2=NN=NC2=N1`, 225 to 227 °C; that for `Oc1ccc2sc(C=C3C4CC5CC(C4)CC3C5)nc2c1`, 156 to 158 °C.

The molecule `CCCCCCN(CCCCCC)c1c(N[C@@H](Cc2ccc(NC(=O)c3ccccc3)cc2)C(=O)O)c(=O)c1=O` came in with a melting point of 95 to 100 °C.

`N#Cc1ccc(C(=O)N[C@H]2CC[C@H](CCN3CCN(c4nccc5c4CCO5)CC3)CC2)cc1` came in with a melting point of 244 °C. Next, `Cn1cncc1C(O)(c1ccc(Cn2cnnn2)cc1)c1ccc2c(c1)c(-c1cccc(Cl)c1)cc(=O)n2C` (stereo unspecified): 160 °C; `Cc1csc(=S)n1-c1ccc(F)cc1N`: 138 °C; `C=CCc1cc(O)c(CC=C)c(C=O)c1O`: 102 °C. The result for `Cc1cc(-c2ccc(-c3c(Cc4ccccc4)oc4ccccc34)cc2)cc(C)c1OS(=O)(=O)c1ccc(C(=O)O)c(O)c1` reads 165 to 167 °C; that for `N=C(NC=Cc1ccc([N+](=O)[O-])cc1)c1cccc([N+](=O)[O-])c1`, 152 to 155 °C. Take `COc1ccc(OC(CCCN2CC3CCC(C2)N3C(=O)OC(C)(C)C)c2ccc(C#N)cc2)cc1OC` (stereo unspecified): the melting point is 38 to 41 °C. With `COc1ccc(-n2nc(C)c3c(C(=O)Nc4c(C)ccnc4C)cc(C)nc32)cc1`, the melting point was in the range of 224 to 227 °C. In turn, `CC1C(=O)N(c2ccc(Sc3ccccc3)cc2)C(=S)N1c1ccccc1` (stereo unspecified) gave a melting point of 136 to 138 °C.

The molecule `NC(=O)N1C(=O)C(=C(OC(=O)c2ccncc2)c2cccs2)c2cc(F)c(Cl)cc21` returned a melting point of 220 to 221 °C. The result for `O=C(O)Cc1ccc(NC(=O)C(COc2ccccc2)NS(=O)(=O)c2ccc(Cl)cc2)cc1` (racemic) reads 190 to 192 °C; that for `CCCCCOC(=O)C1CC(=O)NN1c1ncccc1Cl` (stereo unspecified), 66 to 68 °C.

`Cc1ccc2cccc(OCc3c(Cl)ccc(S(=O)(=O)N(CCCCN(C(=O)OC(C)(C)C)C(=O)OC(C)(C)C)C(C)(C)C)c3Cl)c2n1` had a melting point of 172 to 175 °C.

For the molecule `C=CC(=O)c1ccc(O)c(Cl)c1Cl`, the melting point lay within 135 to 137 °C. The molecule `COC(=O)c1cc2c(Nc3ccc4[nH]ccc4c3C)c(C#N)cnc2s1` yielded a melting point of 255 °C. Next, `CC(C)n1c(=O)c(=O)[nH]c2cccnc21`: 246 to 247 °C; `Nc1ccc2nc(-c3ccccc3)nn2c1`: 201 °C; `Clc1ccc(C2OC3(CCN(Cc4ccccc4)CC3)N3CCCCC23)cc1` (stereo unspecified): 134 to 136 °C.

In the case of `O=S(=O)(c1ccc(/C=C/c2nc(COc3ccc(CCCCn4ccnn4)cc3)co2)cc1)C(F)(F)F`, the melting point fell in the range of 133 to 135 °C.

As to `CCS(=O)c1ccc(-c2nc(-c3ccc(F)cc3)c(-c3ccncc3)[nH]2)cc1` (stereo unspecified), the melting point stood at 240 °C. Next, `NS(=O)(=O)c1nc2ccc(OC(=O)CC3CCCC3)cc2s1`: 118 to 120 °C; `O=c1[nH]c2ccc3c(c2[nH]1)OC(CNCCCCc1ccccc1)CO3` (stereo unspecified): 224 to 226 °C. The result for `CCc1ccc2oc(=O)c([N+](=O)[O-])c(O)c2c1` reads 114 to 115 °C; that for `CC(=O)SC[C@H]1CCCCCC[C@H](C(=O)O)NC1=O` (relative stereo), 144 to 145 °C. On to `CC1=c2c(cc3c(c2C)-c2ccccc2N=3)N=C1c1nc(C)no1`, for which the melting point lay in the range of 248 to 249 °C. Next, `CCOC(=O)c1nc(-c2ccc(OC)cc2)ns1`: 61 to 63 °C; `O=C(O)c1ccc(OCCCCCCc2ccc3cc(OCc4ccccc4)c(OCc4ccccc4)cc3c2)cc1`: 153 to 155 °C. The result for `C=CCN(CC=C)c1nc(N(CC=C)CC=C)nc(N2CCN(C(=O)NC(c3ccccc3)c3ccccc3)CC2)n1` reads 158 to 159 °C. Next, `CNC(=O)C1CCC(c2csc(NC(=N)N)n2)C1` (stereo unspecified): 216 to 218 °C; `CCCCNc1c(C(=O)OCC)c(C)nc(S)c1[N+](=O)[O-]`: 140 to 142 °C.
